Values belong to the compound of their own block, whether it stands above or below them.
Molecular target: MASP-2 CCP2-SP (Homo sapiens (Human), UniProt O00187)
Assay: MASP-2 co-crystallization, X-ray crystallography and structure analysis (H-bonds, van der Waals contacts);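 as to Ligand-pharmacophore element distance, pharmacophore element C2: distance from averaged pharmacophore element to bound ligand; missing value means element absent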;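 as to Ligand-pharmacophore element distance, pharmacophore element C3: distance from averaged pharmacophore element to bound ligand; missing value means element absent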;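 as to Ligand-pharmacophore element distance, pharmacophore element C4: distance from averaged pharmacophore element to bound ligand; missing value means element absent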;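 as to Ligand-pharmacophore element distance, pharmacophore element C5: distance from averaged pharmacophore element to bound ligand; missing value means element absent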
Design: van der Waals contact distance, MASP-2 HIS 483 atom CD2 / van der Waals contact distance, MASP-2 HIS 483 atom NE2 / van der Waals contact distance, SER 654 C to compound atom / van der Waals contact distance, SER 654 O to compound atom / van der Waals contact distance, TRP 655 C to compound atom / van der Waals contact distance, MASP-2 GLY 528 atom CA / van der Waals contact distance TRP 655 atom CZ3 / van der Waals contact distance TRP 655 atom N / van der Waals contact distance TRP 655 atom CE3 / van der Waals contact distance GLY 656 atom C / van der Waals contact distance GLY 656 atom CA / van der Waals contact distance GLY 656 atom O / van der Waals contact distance, MASP-2 TYR 607 atom CD1 / van der Waals contact distance, MASP-2 PRO 606 atom O / d(C3,CA1) / d(CA1,N1)2 / d(H4,O1) / d(H4,O2) / d(O1,O2) / d(CA1,O2) / d(CA6,O1) / d(CA6,O2) / d(CA1,C5) / d(O2,H3) / d(N2,C2) / d(CA5,N2) / d(N2,C4) / d(N2,C6) / d(N2,CA3) / d(N2,O3) / d(O4,H2): unit not given beside the values
Settings: for Ligand-pharmacophore element distance, pharmacophore element C2 / Ligand-pharmacophore element distance, pharmacophore element C3 / Ligand-pharmacophore element distance, pharmacophore element C4 / Ligand-pharmacophore element distance, pharmacophore element C5 / Ligand-pharmacophore element distance, pharmacophore element C6 / Ligand-pharmacophore element distance, pharmacophore element C7 / Ligand-pharmacophore element distance, pharmacophore element CA1 / Ligand-pharmacophore element distance, pharmacophore element CA2 / Ligand-pharmacophore element distance, pharmacophore element CA3 / Ligand-pharmacophore element distance, pharmacophore element CA4 / Ligand-pharmacophore element distance, pharmacophore element CA5 / Ligand-pharmacophore element distance, pharmacophore element CA6: Table A4-1; for van der Waals contact distance, TRP 655 C to compound atom / van der Waals contact distance, TRP 655 CA to compound atom: Table A2-12; for van der Waals contact distance GLY 656 atom CA: Table A2-13, MASP-2 GLY 656 CA
Summary of the method: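 Soaked crystals of recombinant CCP2-SP (E. coli) yield the structures, phased by molecular replacement on 1Q3X pieces. Hydrophobic or nonbonded contacts can also cover atom pairs that are potential hydrogen bonds.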

[1] = Table A5-1 pharmacophore: distance between elements, S2/S1 region
[2] = Table A5-2 pharmacophore distance, S3/S4 region
[3] = Table A7-1, between pharmacophore elements of the bound compound
[4] = Table A7-2, between pharmacophore elements of the bound compound
[5] = Table A2-7: SER 628 (CB, O, OG)
[6] = Table A8-6, nearest protein atom in cell to the left

Sequence of MASP-2 CCP2-SP (O00187 445-686): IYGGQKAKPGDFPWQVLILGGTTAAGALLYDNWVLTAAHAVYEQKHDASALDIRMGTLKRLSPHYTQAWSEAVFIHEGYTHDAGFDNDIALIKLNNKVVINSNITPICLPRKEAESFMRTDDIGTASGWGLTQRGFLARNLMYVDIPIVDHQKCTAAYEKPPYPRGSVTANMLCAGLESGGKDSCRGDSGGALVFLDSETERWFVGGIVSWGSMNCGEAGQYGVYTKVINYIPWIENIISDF
Sequence of MASP-2 CCP2-SP (O00187 364-432 partner): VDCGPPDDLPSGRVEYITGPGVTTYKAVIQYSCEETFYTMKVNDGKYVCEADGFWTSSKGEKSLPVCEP

Structure (SMILES): Cc1nc(N)ccc1CNC(=O)[C@H](C)NC(=O)[C@H]1C[C@H](Cc2ccccc2Br)CN1.O=C(O)C(F)(F)F.O=C(O)C(F)(F)F [1372_B]
- Ligand-pharmacophore element distance, pharmacophore element C2: 0
- Ligand-pharmacophore element distance, pharmacophore element C3: 0.1
- Ligand-pharmacophore element distance, pharmacophore element C4: 0
- Ligand-pharmacophore element distance, pharmacophore element C5: 0
- Ligand-pharmacophore element distance, pharmacophore element C6: 1.46
- Ligand-pharmacophore element distance, pharmacophore element C7: 0
- Ligand-pharmacophore element distance, pharmacophore element CA1: 0.57
- Ligand-pharmacophore element distance, pharmacophore element CA2: 1.41
- Ligand-pharmacophore element distance, pharmacophore element CA3: 0
- Ligand-pharmacophore element distance, pharmacophore element CA4: 0
- Ligand-pharmacophore element distance, pharmacophore element CA5: 0
- Ligand-pharmacophore element distance, pharmacophore element CA6: 0
- d(C3,CA1) [1]: 2.85
- d(CA1,N1)2 [1]: 1.38
- d(CA1,O1) [1]: 4.37
- d(CA1,O2) [1]: 4.00
- d(H4,O1) [1]: 4.39
- d(H4,O2) [1]: 3.91
- d(O1,O2) [1]: 3.35
- d(N2,C6) [2]: 5.56
- d(N2,CA2) [2]: 6.02
- d(O2,H3) [2]: 2.23
- d(O2,N2) [2]: 2.63
- a(C3, CA1, O1) (Table A6-1 pharmacophore angle): 149.88
- a(CA1, O1, O2) (Table A6-1 pharmacophore angle): 107.52
- a(O1, O2, H4) (Table A6-1 pharmacophore angle): 132.88
- a(N1, CA1, O1) b) (Table A6-1 pharmacophore angle, Methyl-amino-pyridine compounds): 174.13
- a(O1, O2, H3) (Table A6-2 pharmacophore angle): 139.74
- a(O1, O2, N2) (Table A6-2 pharmacophore angle): 143.19
- a(O2, N2, C6) (Table A6-2 pharmacophore angle): 115.79
- a(O2, N2, CA2) (Table A6-2 pharmacophore angle): 157.88
- Pharmacophore torsion angle a(C3, CA1, O1, H4) [3]: 25.77
- Pharmacophore torsion angle a(H4, O1, O2, H3) [3]: 99.85
- Pharmacophore torsion angle a(H4, O1, O2, N2) [3]: 139.62
- Pharmacophore torsion angle a(N1, CA1, O1, H4) [3]: 4.96
- Pharmacophore torsion angle a(O1, H4, O2, CA1) [3]: −82.66
- Pharmacophore torsion angle a(O1, O2, N2, C6) [4]: 141.41
- Pharmacophore torsion angle a(O1, O2, N2, CA2) [4]: 109.73

Structure (SMILES): CC(NC(=O)C1CC(Cc2ccccc2)CN1)C(=O)NCc1cnc2c(c1)c(Cl)cn2C.Cl.Cl (stereo not shown) [1450_B]
- Ligand-pharmacophore element distance, pharmacophore element C2: 0
- Ligand-pharmacophore element distance, pharmacophore element C3: 0
- Ligand-pharmacophore element distance, pharmacophore element C4: 0
- Ligand-pharmacophore element distance, pharmacophore element C5: 1.67
- Ligand-pharmacophore element distance, pharmacophore element C6: 0
- Ligand-pharmacophore element distance, pharmacophore element C7: 1.3
- Ligand-pharmacophore element distance, pharmacophore element CA1: 0.94
- Ligand-pharmacophore element distance, pharmacophore element CA2: 1.24
- Ligand-pharmacophore element distance, pharmacophore element CA3: 0
- Ligand-pharmacophore element distance, pharmacophore element CA4: 0
- Ligand-pharmacophore element distance, pharmacophore element CA5: 0
- Ligand-pharmacophore element distance, pharmacophore element CA6: 0
- d(CA1,C5) [1]: 3.41
- d(CA1,O1) [1]: 5.49
- d(CA1,O2) [1]: 4.57
- d(CA1,O4) [1]: 1.74
- d(H4,O1) [1]: 3.14
- d(H4,O2) [1]: 3.46
- d(O1,O2) [1]: 3.83
- d(N2,CA2) [2]: 6.07
- d(O2,H3) [2]: 2.32
- d(O2,N2) [2]: 2.67
- a(C5, CA1, O1) (Table A6-1 pharmacophore angle): 150.20
- a(CA1, O1, O2) (Table A6-1 pharmacophore angle): 98.92
- a(O1, CA1, C7) (Table A6-1 pharmacophore angle): 139.92
- a(O1, CA1, O4) (Table A6-1 pharmacophore angle): 66.73
- a(O1, O2, H4) (Table A6-1 pharmacophore angle): 109.15
- a(O1, O2, H3) (Table A6-2 pharmacophore angle): 123.50
- a(O1, O2, N2) (Table A6-2 pharmacophore angle): 138.89
- a(O2, N2, CA2) (Table A6-2 pharmacophore angle): 155.81
- Pharmacophore torsion angle a(C5, CA1, O1, H4) [3]: 13.21
- Pharmacophore torsion angle a(C7, CA1, O1, H4) [3]: −150.35
- Pharmacophore torsion angle a(H4, O1, O2, H3) [3]: −176.95
- Pharmacophore torsion angle a(H4, O1, O2, N2) [3]: 177.59
- Pharmacophore torsion angle a(O1, H4, O2, CA1) [3]: −91.88
- Pharmacophore torsion angle a(O1, O2, N2, CA2) [4]: 137.59

Structure (SMILES): C[C@H](NC(=O)[C@H]1C[C@H](c2ccccc2)CN1)C(=O)NCc1ccc(N)nc1 [compound 1012]
- H-bond distance to MASP-2 ASP 627 atom OD2 (Table A1 (H-Bonds), ASP 627 OD2): 3.18
- H-bond distance to MASP-2 GLY 656 atom N (Table A1 (H-Bonds), GLY 656 N): 3.18
- H-bond distance to MASP-2 GLY 656 atom O (Table A1 (H-Bonds), GLY 656 O): 2.77
- H-bond distance to MASP-2 SER 654 atom O (Table A1 (H-Bonds), SER 654 O): 2.93
- H-bond distance to MASP-2 SER 657 atom O (Table A1 (H-Bonds), SER 657 O): 2.89
- van der Waals contact distance, MASP-2 HIS 483 atom CD2 (Table A2-1): 3.63
- van der Waals contact distance, MASP-2 PHE 529 atom CE1 (Table A2-3): 3.75
- van der Waals contact distance, MASP-2 PHE 529 atom CE2 (Table A2-3): 3.78
- van der Waals contact distance, MASP-2 PRO 606 atom CG (Table A2-4): 3.85
- van der Waals contact distance, MASP-2 amino acid atom to compound atom (Table A2-5: TYR 607 (CE1, CE2, OH), PRO 608 (CD, CG), SER 611 (CA)): 3.88
- van der Waals contact distance, MASP-2 amino acid atom to compound atom (Table A2-6: SER 611 (CB, OG), ASP 627 (CG, OD1, OD2), SER 628 (C, CA)): 3.6
- van der Waals contact distance, MASP-2 amino acid atom to compound atom [5]: 3.53
- van der Waals contact distance, MASP-2 amino acid atom to compound atom (Table A2-9, ARG 630, AA atoms CG, CZ): 3.83
- van der Waals contact distance, TRP 655 C to compound atom: 3.8
- van der Waals contact distance, TRP 655 CA to compound atom: 3.36
- van der Waals contact distance GLY 656 atom CA: 3.73

Other lines, results leading:

- H-bond distance to MASP-2 ALA 469 atom N (Table A1 (H-Bonds), ALA 469 N): 3
- H-bond distance to MASP-2 HIS 483 atom NE2 (Table A1 (H-Bonds), HIS 483 NE2): 2.89
- van der Waals contact distance, MASP-2 ALA 468 atom C (Table A2-1): 3.69
- van der Waals contact distance, MASP-2 ALA 468 atom CA (Table A2-1): 3.52
- van der Waals contact distance, MASP-2 ALA 468 atom CB (Table A2-1): 3.52
- van der Waals contact distance, MASP-2 ALA 469 atom CA (Table A2-1): 3.89
- van der Waals contact distance, MASP-2 HIS 483 atom CD2 (Table A2-1): 3.72
- van der Waals contact distance, MASP-2 PHE 529 atom CE1 (Table A2-3): 3.21
- van der Waals contact distance, MASP-2 amino acid atom to compound atom [5]: 3.65
- van der Waals contact distance, VAL 653 CB to compound atom (Table A2-11): 3.77
- van der Waals contact distance, TRP 655 C to compound atom: 3.72
- van der Waals contact distance, TRP 655 CA to compound atom: 3.69
- van der Waals contact distance, MASP-2 amino acid atom to compound atom (Table A2 section before Table A2-8): 3.89
- Ligand-pharmacophore element distance, pharmacophore element C2: 0
- Ligand-pharmacophore element distance, pharmacophore element C3: 0
- Ligand-pharmacophore element distance, pharmacophore element C4: 0
- Ligand-pharmacophore element distance, pharmacophore element C5: 0
- Ligand-pharmacophore element distance, pharmacophore element C6: 0
- Ligand-pharmacophore element distance, pharmacophore element C7: 0
- Ligand-pharmacophore element distance, pharmacophore element CA1: 1.47
- Ligand-pharmacophore element distance, pharmacophore element CA2: 0
- Ligand-pharmacophore element distance, pharmacophore element CA3: 0
- Ligand-pharmacophore element distance, pharmacophore element CA4: 0
- Ligand-pharmacophore element distance, pharmacophore element CA5: 0
- Ligand-pharmacophore element distance, pharmacophore element CA6: 1.68
- Ligand-pharmacophore element distance, pharmacophore element H1 (Table A4-2, element H1): 0
- Ligand-pharmacophore element distance, pharmacophore element H2 (Table A4-2, element H2): 4.66
- Ligand-pharmacophore element distance, pharmacophore element H3 (Table A4-2, element H3): 0
- Ligand-pharmacophore element distance, pharmacophore element H4 (Table A4-2, element H4): 1.82
- Ligand-pharmacophore element distance, pharmacophore element N1 (Table A4-2, element N1): 0
- Ligand-pharmacophore element distance, pharmacophore element N2 (Table A4-2, element N2): 0
- Ligand-pharmacophore element distance, pharmacophore element O1 (Table A4-2, element O1): 3.89
- Ligand-pharmacophore element distance, pharmacophore element O2 (Table A4-2, element O2): 0.46
- Ligand-pharmacophore element distance, pharmacophore element O3 (Table A4-2, element O3): 0
- Ligand-pharmacophore element distance, pharmacophore element O4 (Table A4-2, element O4): 0
- d(CA1,O1) [1]: 3.49
- d(CA1,O2) [1]: 3.51
- d(CA6,O1) [1]: 7.02
- d(CA6,O2) [1]: 3.51
- d(H4,O1) [1]: 3.02
- d(H4,O2) [1]: 3.13
- d(O1,O2) [1]: 5.28
- a(CA1, O1, O2) (Table A6-1 pharmacophore angle): 139.05
- a(O1, CA6, O2) (Table A6-1 pharmacophore angle): 75.74
- a(O1, O2, H4) (Table A6-1 pharmacophore angle): 61.95
- Pharmacophore torsion angle a(CA6, O1, H4, O2) [3]: 43.29
- Pharmacophore torsion angle a(O1, H4, O2, CA1) [3]: 38.29
- Pharmacophore protein distance to MET_658 (first MET_658 column) (Table A8-6, 6th residue column, nearest protein atom in cell to the left): 2.13
- Pharmacophore protein distance to MET_658 (second MET_658 column) (Table A8-6, 9th residue column, nearest protein atom in cell to the left): 3.80
- Pharmacophore protein distance to GLY_528 [6]: 3.51
- Pharmacophore protein distance to PHE_529 [6]: 2.77
- Pharmacophore protein distance to PRO_608 [6]: 4.32
- Pharmacophore protein distance to SER_611 [6]: 2.64
- Pharmacophore protein distance to TRP_655 (Table A8-6, pharmacophore elements C6, CA3, O3, H1, nearest protein atom in cell to the left): 3.76
Structure (SMILES): O=c1oc(-c2ccccc2[N+](=O)[O-])nc2ccccc12 [compound 14]

- van der Waals contact distance GLY 656 atom CA: 3.72
Structure (SMILES): Cc1c(/N=C/c2ccc(OC(=O)c3ccco3)cc2)c(=O)n(-c2ccccc2)n1C [compound 34]

— US12195427B2, “MASP-2 inhibitors and methods of use” (priority 2018, dated 2025)
